Experiments:
human TGR5 = biological target: T1, human TGR5 (Homo sapiens, UniProt Q8TDU6); experiment: Cell-based TGR5 assay, HEK293 cells stably expressing human TGR5, cAMP by HTRF; details: HEK293 cells stably expressing human TGR5, 30 min at 37 C, 0.05 nM to 10 μM; for EC50: read-out: pEC50 Human TGR5 (converted)
T1 construct: expressed in transfected cells
T1 sequence (Q8TDU6 1-330): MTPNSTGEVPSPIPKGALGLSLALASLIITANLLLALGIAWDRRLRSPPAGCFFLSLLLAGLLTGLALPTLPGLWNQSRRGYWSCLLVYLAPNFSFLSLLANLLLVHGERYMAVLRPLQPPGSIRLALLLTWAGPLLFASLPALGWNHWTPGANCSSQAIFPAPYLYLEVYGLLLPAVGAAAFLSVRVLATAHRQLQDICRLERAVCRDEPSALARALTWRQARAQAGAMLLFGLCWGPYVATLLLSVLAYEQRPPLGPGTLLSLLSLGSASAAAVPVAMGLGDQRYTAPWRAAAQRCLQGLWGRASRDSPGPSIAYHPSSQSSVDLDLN
How it was run: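 cAMP HTRF read-out, converted to concentration via standard curve, after a 30 min, 37 °C compound exposure in HBSS with 10 mM HEPES pH 7.4 and 0.5 mM IBMX, compounds serially diluted 3-fold from 10 mM DMSO stock then 100-fold. Cells: stable human TGR5 HEK293, or NCI-H716 expressing TGR5 endogenously.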

[1] = biological target: T2, endogenously expressed TGR5 in NCI H716 (Homo sapiens, UniProt Q8TDU6); experiment: Cell-based TGR5 assay, NCI-H716 cells endogenously expressing human TGR5, cAMP by HTRF; details: 30 min at 37 C, 22 nM to 50 μM, read-out: pEC50 endogenously expressed TGR5 in NCI H716 (converted)
T2 construct: human caecum carcinoma cell line NCI-H716 which endogenously expresses human TGR5; endogenous in cells; host or cells: NCI-H716
T2 sequence (Q8TDU6 1-330): T1 sequence (Q8TDU6 1-330)
Experimental: Two primary cell based screens were performed. The first utilized HEK293 cells stably transfected to heterologously express human TGR5. The second screen used the human caecum carcinoma cell line NCI-H716 which endogenously expresses human TGR5. In both assays, cells are treated with candidate TGR5 activators and assessed for the increased intercellular levels of cAMP. […]
TGR5-mediated cAMP generation was measured using a homogeneous time resolved fluorescence (HTRF) detection method (Cisbio). Test compounds were dissolved in DMSO to a final concentration of 10 mM. Serial 3-fold dilutions of the stock solution were made in DMSO, and these solutions were diluted 100-fold into Hanks Balanced Salt Solution supplemented with 10 mM HEPES pH 7.4 and 0.5 mM isobutyl methylxanthine (IBMX). Prior to assay, culture medium was replaced with fresh medium, and test compounds diluted in HBSS/HEPES/IBMX were added to the cells and incubated at 37° C. for 30 minutes.
Following incubation with test compounds, cAMP was detected through the successive addition of cAMP labeled with the modified allophyocyanin dye d2 (cAMP-d2) and cryptate-labeled anti-cAMP in lysis buffer, and reading HTRF per the manufacturer's instructions. A standard curve was used to convert the raw HTRF data into [cAMP].

| SMILES | EC50 (human TGR5) | EC50 [1] | pEC50 Human TGR5 (human TGR5) |
| --- | --- | --- | --- |
| O=C(N1CCN(C2CC2)c2ccccc21)C1(NCc2cc(C(F)(F)F)ccc2Cl)CC1 [Example 255] | < 0.1 µM | < 0.1 µM | – |
| O=C(CCc1ccc(Cl)c(CNC2(C(=O)N3CCN(C4CC4)c4ccccc43)CC2)c1)NC[C@H](O)[C@@H](O)[C@H](O)[C@H](O)CO [Example 70, 3-(4-chloro-3-(((1-(4-cyclopropyl-1,2,3,4-tetrahydroquinoxaline-1-carbonyl)cyclopropyl)amino)methyl)phenyl)-N-((2S,3R,4R,5R)-2,3,4,5,6-pentahydroxyhexyl)propanamide] | 1.26 to 50.1 µM | 1.26 to 50.1 µM | – |
| CN(C[C@H](O)[C@@H](O)[C@H](O)[C@H](O)CO)C(=O)CCCOc1cc(Cl)c(CN2CSC[C@H]2C(=O)N2CCN(C3CC3)c3ccccc32)cc1Cl [Example 189] | < 0.1 µM | 0.126 to 1 µM | – |
| O=C([C@@H]1CCCN1Cc1c(Cl)cccc1Cl)N1CCN(C2CC2)c2ccccc21 [Example 47, (S)(4-cyclopropyl-3,4-dihydroquinoxaline-1(2H)-yl)(1-(2,6-dichlorobenzyl)pyrrolidin-2-yl) methanone] | > 10 µM | 1.26 to 50.1 µM | – |
| NCCCc1cc(Cl)c(CNC2(C(=O)N3CCN(C4CC4)c4ccccc43)CC2)cc1Cl [Example 92, (1-(4-(3-aminopropyl)-2,5-dichlorobenzylamino)cyclopropyl)(4-cyclopropyl-3,4-dihydroquinoxalin-1(2H)-yl)methanone] | 1.26 to 50.1 µM | 1.26 to 50.1 µM | – |
| O=C(N1CCCc2ncccc21)C1(OCc2cc(Cl)ccc2Cl)CC1 [Example 86, 1-([1-[(2,5-dichlorophenyl)methoxy]cyclopropyl]carbonyl)-1,2,3,4-tetrahydro-1,5-naphthyridine] | > 10 µM | > 50.1 µM | – |
| COc1cc(Cl)c(CN2CCC[C@H]2C(=O)N2CCN(C3CC3)c3ccccc32)cc1Cl [Example 89, (S)-(4-cyclopropyl-3,4-dihydroquinoxalin-1(2H)-yl)(1-(2,5-dichloro-4-methoxybenzyl)pyrrolidin-2-yl)methanone] | 0.126 to 1 µM | 1.26 to 50.1 µM | – |
| CN(C(=O)C1(OCc2cc(Cl)c(CCCCNC(=O)NC[C@H](O)[C@@H](O)[C@H](O)[C@H](O)CO)cc2Cl)CC1)c1ccccc1OC1CC1 [Example 257] | < 0.1 µM | 0.126 to 1 µM | – |
| CN(C[C@H](O)[C@@H](O)[C@H](O)[C@H](O)CO)C(=O)NCCOc1cc(Cl)c(CN2CSC[C@H]2C(=O)N2CCN(C3CC3)c3ccccc32)cc1Cl [Example 184] | 0.126 to 1 µM | 0.126 to 1 µM | – |
| O=C(O)CCCOc1cc(Cl)c(CNC2(C(=O)N3CCN(C4CC4)c4ccccc43)CC2)cc1Cl [Example 187] | 0.126 to 1 µM | 1.26 to 50.1 µM | – |
| CC(C(=O)N1CCN(C2CC2)c2ccccc21)N(C)Cc1cc(Cl)ccc1Cl (centres unmarked) [Example 243] | 0.126 to 1 µM | 1.26 to 50.1 µM | – |
| O=C([C@@H]1CCCN1Cc1cc(Cl)cc(OC(F)(F)F)c1)N1CCN(C2CC2)c2ccccc21 [Example 74, 1-[[(2S)-1-[[3-chloro-5-(trifluoromethoxy)phenyl]methyl]-pyrrolidin-2-yl]carbonyl]-4-cyclopropyl-1,2,3,4-tetrahydroquinoxaline] | 0.126 to 1 µM | > 50.1 µM | – |
| O=C(N1CCN(C2CC2)c2ccccc21)C1(OCc2cc(Cl)ccc2Cl)CNC1 [Example 50, (4-cyclopropyl-3,4-dihydroquinoxalin-1(2H)-yl)(3-(2,5-dichlorobenzyloxyl)azetidin-3-yl)methanone] | 0.126 to 1 µM | 1.26 to 50.1 µM | – |
| CC(NCc1cc(Cl)ccc1Cl)C(=O)N1CCN(C2CC2)c2ccccc21 (centres unmarked) [Example 7, 1-(4-cyclopropyl-3,4-dihydroquinoxalin-1(2H)-yl)-2-(2,5-dichlorobenzylamino)propan-1-one] | 0.126 to 1 µM | 1.26 to 50.1 µM | – |
| CC(OC1(C(=O)N2CCN(C3CC3)c3ccccc32)CC1)c1cc(Cl)ccc1Cl (centres unmarked) [Example 94, (4-cyclopropyl-3,4-dihydroquinoxalin-1(2H)-yl)(1-(1-(2,5-dichlorophenyl)ethoxy)cyclopropyl)methanone] | 1.26 to 50.1 µM | 1.26 to 50.1 µM | – |
| O=C([C@@H]1CCCN1Cc1cc(C(F)(F)F)ccc1Cl)N1CCN(C2CC2)c2ccccc21 [Example 84, 1-[[(2S)-1-[[2-chloro-5-(trifluoromethyl)phenyl]methyl]pyrrolidin-2-yl]carbonyl]-4-cyclopropyl-1,2,3,4-tetrahydroquinoxaline] | < 0.1 µM | 0.126 to 1 µM | – |
| O=C(N1CCN(C2CC2)c2ccccc21)C1(OCc2cc(C(F)(F)F)ccc2Cl)CC1 [Example 43, 1-[(1-[[2-chloro-5-(trifluoromethyl)phenyl]methoxy]cyclopropyl)carbonyl]-4-cyclopropyl-1,2,3,4-tetrahydroquinoxaline] | < 0.1 µM | < 0.1 µM | – |
| CN(C[C@H](O)[C@@H](O)[C@H](O)[C@H](O)CO)C(=O)CCc1ccc(Cl)c(CNC2(C(=O)N3CCN(C4CC4)c4ccccc43)CC2)c1 [Example 60, 3-(4-chloro-3-(((1-(4-cyclopropyl-1,2,3,4-tetrahydroquinoxaline-1-carbonyl)cyclopropyl)amino)methyl)phenyl)-N-methyl-N-((2S,3R,4R,5R)-2,3,4,5,6-pentahydroxyhexyl)propanamide] | 0.126 to 1 µM | 0.126 to 1 µM | – |
| O=C(N1CCN(C2CC2)c2ccccc21)C1(NCc2cc(Cl)ccc2Cl)COC1 [Example 90, (4-cyclopropyl-3,4-dihydroquinoxalin-1(2H)-yl)(3-(2,5-dichlorobenzylamino)oxetan-3-yl)methanone] | < 0.1 µM | 0.126 to 1 µM | – |
| CN(C(=O)C1(OCc2cc(Cl)ccc2Cl)CC1)c1ccccc1OC1CCC1 [Example 72, N-(2-cyclobutoxyphenyl)-1-(2,5-dichlorobenzyloxy)-N-methylcyclopropanecarboxamide] | < 0.1 µM | < 0.1 µM | – |
| O=C(CCc1cc(Cl)c(CNC2(C(=O)N3CCN(C4CC4)c4ccccc43)CC2)cc1Cl)NCCOCCOCCNC(=O)CCc1cc(Cl)c(CNC2(C(=O)N3CCN(C4CC4)c4ccccc43)CC2)cc1Cl [Example 95, N,N′-(2,2′-(ethane-1,2-diylbis(oxy))bis(ethane-2,1-diyl))bis(3-(2,5-dichloro-4-((1-(4-cyclopropyl-1,2,3,4-tetrahydroquinoxaline-1-carbonyl)cyclopropylamino)methyl)phenyl)propanamide)] | < 0.1 µM | 1.26 to 50.1 µM | – |
| CN(C[C@H](O)[C@@H](O)[C@H](O)[C@H](O)CO)C(=O)CCCCc1cc(Cl)c(CNC2(C(=O)N3CCN(C4CC4)c4ccccc43)CC2)cc1Cl [Example 219] | < 0.1 µM | < 0.1 µM | – |
| CN(C[C@H](O)[C@@H](O)[C@H](O)[C@H](O)CO)C(=O)CCc1cc(Cl)c(CNC2(C(=O)N3CCN(C4CC4)c4ccccc43)CC2)cc1Cl [Example 91, 3-(2,5-dichloro-4-((1-(4-cyclopropyl-1,2,3,4-tetrahydroquinoxaline-1-carbonyl)cyclopropylamino)methyl)phenyl)-N-methyl-N-((2S,3R,4R,5R)-2,3,4,5,6-pentahydroxyhexyl)propanamide] | 0.126 to 1 µM | 0.126 to 1 µM | – |
| CN(C[C@H](O)[C@@H](O)[C@H](O)[C@H](O)CO)C(=O)NCCOc1cc(Cl)c(CNC2(C(=O)N3CCN(C4CC4)c4ccccc43)CC2)cc1Cl [Example 188] | – | 0.126 to 1 µM | B (B is a pEC50 of 6-6.9) |
| O=C(N1CCN(C2CC2)c2ccccc21)C1(OCc2cc(Cl)cc(OC(F)(F)F)c2)CC1 [Example 248] | 1.26 to 50.1 µM | 1.26 to 50.1 µM | – |
